# Data as given in PubChem BioAssay (NCI).
#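 Growth conditions: 96-well plates. Treatment: test compound, 48 hours, 5 concentrations. Analysis: linear interpolation between bracketing concentrations; unreached endpoints set to highest concentration. Definition used: TGI = concentration required for complete inhibition of growth.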
# Columns and labels:
# Experiment in all cases: inhibition of tumour cell growth, NCI panel, 48 h
# 786-0 renal = tested on: 786-0 renal
# HOP-62 NSCLC = tested on: HOP-62 NSCLC
# NCI-H522 lung = tested on: NCI-H522 lung
# T-47D breast = tested on: T-47D breast
# MALME-3M melanoma = tested on: MALME-3M melanoma
# HS 578T breast = tested on: HS 578T breast
# HCT-15 colon = tested on: HCT-15 colon
# EKVX NSCLC = tested on: EKVX NSCLC
# SK-MEL-2 melanoma = tested on: SK-MEL-2 melanoma
# OVCAR-8 ovarian = tested on: OVCAR-8 ovarian
# A549 NSCLC = tested on: A549 NSCLC
# UO-31 renal = tested on: UO-31 renal
# TK-10 renal = tested on: TK-10 renal
# HCC-2998 colon = tested on: HCC-2998 colon
# MDA-N = tested on: MDA-N
# SK-OV-3 ovarian = tested on: SK-OV-3 ovarian
# KM12 colon = tested on: KM12 colon
# SF-268 CNS = tested on: SF-268 CNS
# RXF 393 renal = tested on: RXF 393 renal
# U251 CNS = tested on: U251 CNS
# UACC-257 melanoma = tested on: UACC-257 melanoma
# IGROV1 ovarian = tested on: IGROV1 ovarian
# MOLT-4 leukemia = tested on: MOLT-4 leukemia
# OVCAR-4 ovarian = tested on: OVCAR-4 ovarian
# HCT-116 colon = tested on: HCT-116 colon
# NCI-H226 lung = tested on: NCI-H226 lung
# CAKI-1 renal = tested on: CAKI-1 renal
# SF-539 CNS = tested on: SF-539 CNS
# SNB-19 CNS = tested on: SNB-19 CNS
# HOP-92 NSCLC = tested on: HOP-92 NSCLC
# A498 renal = tested on: A498 renal
# HT29 colon = tested on: HT29 colon
# SK-MEL-5 melanoma = tested on: SK-MEL-5 melanoma
# OVCAR-3 ovarian = tested on: OVCAR-3 ovarian
# M14 melanoma = tested on: M14 melanoma
# SW-620 colon = tested on: SW-620 colon
# MDA-MB-231 breast = tested on: MDA-MB-231 breast
# RPMI-8226 leukemia = tested on: RPMI-8226 leukemia
# MDA-MB-435 = tested on: MDA-MB-435
# COLO 205 colon = tested on: COLO 205 colon
# SNB-75 CNS = tested on: SNB-75 CNS
# CCRF-CEM leukemia = tested on: CCRF-CEM leukemia
# SK-MEL-28 melanoma = tested on: SK-MEL-28 melanoma
# ACHN renal = tested on: ACHN renal
# DU-145 prostate = tested on: DU-145 prostate
# HL-60(TB) leukemia = tested on: HL-60(TB) leukemia
# NCI-H23 lung = tested on: NCI-H23 lung
# NCI-H460 lung = tested on: NCI-H460 lung
# BT-549 breast = tested on: BT-549 breast
# MCF7 breast = tested on: MCF7 breast
# K-562 leukemia = tested on: K-562 leukemia
# LOX IMVI melanoma = tested on: LOX IMVI melanoma
# UACC-62 melanoma = tested on: UACC-62 melanoma
# SF-295 CNS = tested on: SF-295 CNS
# NCI/ADR-RES ovarian = tested on: NCI/ADR-RES ovarian
# SR leukemia = tested on: SR leukemia
# OVCAR-5 ovarian = tested on: OVCAR-5 ovarian
# PC-3 prostate = tested on: PC-3 prostate
# SN12C renal = tested on: SN12C renal
compound,measurement,setting,value
S=C1Cc2cc3ccccc3nc2-c2ccccc2N1,TGI,786-0 renal,28.4 µM
same,TGI,HOP-62 NSCLC,30.7 µM
same,TGI,NCI-H522 lung,43.1 µM
same,TGI,T-47D breast,28.7 µM
same,TGI,MALME-3M melanoma,47.6 µM
same,TGI,HS 578T breast,> 63.7 µM
same,TGI,HCT-15 colon,> 87.3 µM
same,TGI,EKVX NSCLC,79.2 µM
same,TGI,SK-MEL-2 melanoma,61.8 µM
same,TGI,OVCAR-8 ovarian,31.2 µM
same,TGI,A549 NSCLC,> 64.8 µM
same,TGI,UO-31 renal,24.1 µM
same,TGI,TK-10 renal,44.6 µM
same,TGI,HCC-2998 colon,36 µM
same,TGI,MDA-N,> 100 µM
same,TGI,SK-OV-3 ovarian,15.4 µM
same,TGI,KM12 colon,> 100 µM
same,TGI,SF-268 CNS,91.6 µM
same,TGI,RXF 393 renal,24.9 µM
same,TGI,U251 CNS,28.3 µM
same,TGI,UACC-257 melanoma,65.5 µM
same,TGI,IGROV1 ovarian,65.1 µM
same,TGI,MOLT-4 leukemia,> 100 µM
same,TGI,OVCAR-4 ovarian,> 40.4 µM
same,TGI,HCT-116 colon,30.8 µM
same,TGI,NCI-H226 lung,46.9 µM
same,TGI,CAKI-1 renal,54.5 µM
same,TGI,SF-539 CNS,29.4 µM
same,TGI,SNB-19 CNS,> 47.4 µM
same,TGI,HOP-92 NSCLC,20.2 µM
same,TGI,A498 renal,18.6 µM
same,TGI,HT29 colon,> 100 µM
same,TGI,SK-MEL-5 melanoma,> 100 µM
same,TGI,OVCAR-3 ovarian,27.9 µM
same,TGI,M14 melanoma,> 64.2 µM
same,TGI,SW-620 colon,> 70.4 µM
same,TGI,MDA-MB-231 breast,27 µM
same,TGI,RPMI-8226 leukemia,> 100 µM
same,TGI,MDA-MB-435,> 68.2 µM
same,TGI,COLO 205 colon,> 100 µM
same,TGI,SNB-75 CNS,17.5 µM
same,TGI,CCRF-CEM leukemia,> 100 µM
same,TGI,SK-MEL-28 melanoma,> 59.1 µM
same,TGI,ACHN renal,41.4 µM
same,TGI,DU-145 prostate,> 100 µM
same,TGI,HL-60(TB) leukemia,> 100 µM
same,TGI,NCI-H23 lung,41.6 µM
same,TGI,NCI-H460 lung,> 51.2 µM
same,TGI,BT-549 breast,> 59.1 µM
same,TGI,MCF7 breast,> 79 µM
same,TGI,K-562 leukemia,> 100 µM
same,TGI,LOX IMVI melanoma,> 69.8 µM
same,TGI,UACC-62 melanoma,25.7 µM
same,TGI,SF-295 CNS,42.2 µM
same,TGI,NCI/ADR-RES ovarian,29 µM
same,TGI,SR leukemia,> 100 µM
same,TGI,OVCAR-5 ovarian,> 91.9 µM
same,TGI,PC-3 prostate,80.7 µM
same,TGI,SN12C renal,32.6 µM
COc1ccc(OC)c(CCc2cc(OC)ccc2OC)c1,TGI,786-0 renal,> 10 µM
same,TGI,HOP-62 NSCLC,> 10 µM
same,TGI,NCI-H522 lung,> 9.66 µM
same,TGI,T-47D breast,> 10 µM
same,TGI,MALME-3M melanoma,> 6.95 µM
same,TGI,HS 578T breast,7.29 µM
same,TGI,HCT-15 colon,> 10 µM
same,TGI,EKVX NSCLC,> 10 µM
same,TGI,SK-MEL-2 melanoma,> 8.88 µM
same,TGI,OVCAR-8 ovarian,> 10 µM
same,TGI,A549 NSCLC,> 10 µM
same,TGI,UO-31 renal,> 10 µM
same,TGI,TK-10 renal,> 10 µM
same,TGI,HCC-2998 colon,> 10 µM
same,TGI,MDA-N,1.64 µM
same,TGI,SK-OV-3 ovarian,> 10 µM
same,TGI,KM12 colon,> 10 µM
same,TGI,SF-268 CNS,> 10 µM
same,TGI,RXF 393 renal,> 8.51 µM
same,TGI,U251 CNS,> 10 µM
same,TGI,UACC-257 melanoma,> 10 µM
same,TGI,IGROV1 ovarian,> 10 µM
same,TGI,MOLT-4 leukemia,> 10 µM
same,TGI,OVCAR-4 ovarian,> 10 µM
same,TGI,HCT-116 colon,> 10 µM
same,TGI,NCI-H226 lung,> 10 µM
same,TGI,CAKI-1 renal,> 10 µM
same,TGI,SF-539 CNS,4.76 µM
same,TGI,SNB-19 CNS,> 10 µM
same,TGI,HOP-92 NSCLC,> 10 µM
same,TGI,A498 renal,> 10 µM
same,TGI,HT29 colon,> 10 µM
same,TGI,SK-MEL-5 melanoma,> 9.35 µM
same,TGI,OVCAR-3 ovarian,2.09 µM
same,TGI,M14 melanoma,> 10 µM
same,TGI,SW-620 colon,> 10 µM
same,TGI,MDA-MB-231 breast,> 10 µM
same,TGI,RPMI-8226 leukemia,> 10 µM
same,TGI,MDA-MB-435,0.49 µM
same,TGI,COLO 205 colon,4.88 µM
same,TGI,SNB-75 CNS,9.07 µM
same,TGI,CCRF-CEM leukemia,> 10 µM
same,TGI,SK-MEL-28 melanoma,> 10 µM
same,TGI,ACHN renal,> 10 µM
same,TGI,DU-145 prostate,> 10 µM
same,TGI,HL-60(TB) leukemia,5.28 µM
same,TGI,NCI-H23 lung,> 10 µM
same,TGI,NCI-H460 lung,> 10 µM
same,TGI,BT-549 breast,> 10 µM
same,TGI,MCF7 breast,> 10 µM
same,TGI,K-562 leukemia,> 10 µM
same,TGI,LOX IMVI melanoma,> 10 µM
same,TGI,UACC-62 melanoma,> 10 µM
same,TGI,SF-295 CNS,> 7.31 µM
same,TGI,NCI/ADR-RES ovarian,> 6.02 µM
same,TGI,SR leukemia,> 10 µM
same,TGI,OVCAR-5 ovarian,> 10 µM
same,TGI,PC-3 prostate,> 10 µM
same,TGI,SN12C renal,> 10 µM
